Measurements published in patent US11419918B2, “Treatment of biliary cirrhosis based on oxyntomodulin analogue GLP-1R/GCGR dual-target agonist peptide” (Shenzhen Turier Biotech Co., Ltd., priority 2017, dated 2022).
Numbered stars: 1 amine (or outer) side, 2 acyl side, 3 side chain; on linkers, the order of the positions; unused ones are H or OH. Square brackets hold non-standard residues; d marks the D form. Primed or numbered codes have the meaning given here. Side chains are listed from the residue outwards. Ends that are not written are not given here. * marks the point of attachment. C18 diacid = O=C(O)CCCCCCCCCCCCCCCCC(=O)*; γGlu = O=C(O)[C@H](CCC(=O)[*:2])N[*:1]; Palmitoyl = CCCCCCCCCCCCCCCC(=O)*; PEG2′ = not defined here; Aib = CC(C)(N)C(=O)O

Tests used:
[1] = tested on: BDL-induced cholestasis hepatic fibrosis in rats; assay: Bile duct ligation (BDL)-induced hepatic fibrosis in rats (biliary cirrhosis rat model); assay type: in vivo, SD rats; settings: 50 μg/kg subcutaneous every two days, 14 days
Experimental: 1. Experimental Drugs: polypeptide compounds 3, 6, 7, 10, 17, 20, 37, 38, 39, 40, 44, 46, Obeticholic Acid (Abbr. OCA, CAS:459789-99-2, purchased from Zhejiang Warrant Pharmaceutical Co., Ltd.) and Liraglutide. Saving condition was −20° C.
128 male SD rats with body weight of 200-230 g were randomly divided into sixteen groups, which were respectively:
SD rats with body weight of 200-230 g at SPF level were provided by Lanzhou University Laboratory Animal Center. After rats were quarantined in the room (SPF environment) for one week, model rat and rat in sham-operated group were subject to intraperitoneal injection and anesthesia with 0.6% pentobarbital sodium solution, and operation was performed on a super clean bench after anesthesia. Bilateral ligation was conducted on model rat after the common bile duct was separated, and ligation was not conducted on rat in sham-operated group, but only the common bile duct was separated. Administration was started from the next day of the operation.
Administration was started from the first day of the operation, and subcutaneous injection of compounds 3, 6, 7, 10, 17, 20, 37, 38, 39, 40, 44, 46 and Liraglutide with 50 μg/kg was performed every two days; intraperitoneal injection for the Obeticholic Acid administration group with 7.5 mg/kg was performed every day; as for the normal saline group, injection was performed every day. During the administration, changes in vital signs of rats were observed every day.
After the end of two weeks of administration cycle (14 days), the rats were killed to collect materials for subsequent biological determination experiments. The livers were taken out for HE dye, Sirius Red dye and IHC dye. Image-pro plus and Graph pad software were used for statistics.

[2] = tested on: human hepatic stellate cells (LX-2); assay: In vitro inhibition of hepatic fibrosis: expression of activation marker α-SMA in LX-2 cells (Western Blot, β-actin internal reference); assay type: cell-based; settings: 10.0 μM, 48 hours, negative control (PBS) = 100%
Method in brief: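 LX-2 cells grown in DMEM high glucose + 10% FBS to ~70% confluence, then exposed to polypeptides (in PBS) at different doses for 48 h; PBS-only negative control. α-SMA quantified by Western blot densitometry normalised to β-actin, expressed relative to control set at 100%.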

Row | Substance | ALT in the serum (FIG. 6) [1] | BDL-induced hepatic fibrosis and inflammation (HE, Sirius Red, IHC sections) [1] | collagenous fiber deposition in liver (Sirius Red dyed sections, FIGS. 2, 4) [1] | content of hydroxyproline of the liver (FIG. 7) [1] | α-SMA in liver (IHC dyed sections, FIGS. 3, 5) [1] | Relative expression of α-SMA (α-SMA/β-actin, %) [2] [%]
1 | His-(D-Ser)-Gln-Gly-Thr-Phe-Thr-Ser-Asp-Tyr-Ser-Lys-Tyr-Leu-Asp-Ser-Lys(PEG2-PEG2-γGlu-CO(CH2)16CO2H)-Ala-Ala-His-Asp-Phe-Val-Glu-Trp-Leu-Leu-Arg-Ala-NH2 (H[dS]QGTFTSDYSKYLDSK([PEG2′-PEG2′-γGlu-C18 diacid])AAHDFVEWLLRA-NH2) [Compound 17] | significantly inhibit | significantly reduce | significantly inhibit | significantly inhibit | significantly inhibit | 35.38
2 | His-(D-Ser)-Gln-Gly-Thr-Phe-Thr-Ser-Asp-Lys(PEG2-PEG2-CO(CH2)14CH3)-Ser-Lys-Tyr-Leu-Asp-Aib-Arg-Arg-Ala-Gln-Asp-Phe-Val-Gln-Trp-Leu-Leu-Asn-Thr-Gly-Gly-Pro-Ser-Ser-Gly-Ala-Pro-Pro-Pro-Ser-NH2 (H[dS]QGTFTSDK([PEG2′-PEG2′-Palmitoyl])SKYLD[Aib]RRAQDFVQWLLNTGGPSSGAPPPS-NH2) [Compound 44] | significantly inhibit | significantly reduce | significantly inhibit | significantly inhibit | significantly inhibit | 39.19
